# Experimental data as given in paper PMC6658735 (Biomaterials, 2019).
# How the values were obtained:
# AM microtissues [1] = test system: AM microtissues
# AM microtissues [2] = experiment: Effect of ROCK inhibitor on AM cyst formation; assay type: cell-based, human; conditions: 10 μM
# [3] = day 0 to day 3, control: Y27632 removed at day 1
Structure (SMILES),"toxicity on the AM development (dose-response, in words) (AM microtissues [1])",cyst morphology (AM microtissues [2]; day 0 to day 3),"lumens per cyst (EZRIN immunostaining) (AM microtissues [2]; day 0 to day 3, control has a single central lumen)",average normalized nuclear intensity of GATA3 vs untreated control (AM microtissues [2]; [3]),average normalized nuclear intensity of TFAP2A vs untreated control (AM microtissues [2]; [3]),average normalized nuclear intensity of TFAP2B vs untreated control (AM microtissues [2]; [3])
COc1cccc2c1C(=O)c1c(O)c3c(c(O)c1C2=O)C[C@@](O)(C(=O)CO)C[C@@H]3O[C@H]1C[C@H](N)[C@H](O)[C@H](C)O1 [Doxorubicin],induces massive cell death shortly after treatment,–,–,–,–,–
C[C@@H](N)[C@H]1CC[C@H](C(=O)Nc2ccncc2)CC1 [Y27632],–,"flattened and collapsed morphology without a visible single, central lumen",multiple EZRIN+ lumens,no significant differences,no significant differences,no significant differences
